From US20020137929A1, “1 - (3-heterocyclylphenyl) isothiourea, -isourea, -guanidine and -amidine herbicidal agents” (Intellectual Property Department, BASF Aktiengesellschaft, priority 1998, published 2002)

What was measured:
[1] = test system: GLXMAW (Soybean, Williams); test: Preemergence herbicidal evaluation; type: in vivo, Glycine max, (L.) Merr. cv Williams; conditions: rated 4-5 weeks after treatment
How it was run: (§1)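 Test compound, dissolved in aqueous acetone, was sprayed over planted soil cups at an equivalent of about 0.0156 to 0.500 kg/ha; seeds had been mixed with potting soil. Greenhouse growth followed, with visual 0-9 scoring of injury at four to five weeks.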

[2] = test system: ORYSAT (Rice, Tebonnet); test: Preemergence herbicidal evaluation; type: in vivo, Oryza sativa, (L.) Tebonnet; conditions: rated 4-5 weeks after treatment
How it was run: as §1

[3] = test system: SAGPY (Arrowhead (Pygmaea)); test: Preemergence weed control under flooded paddy conditions; type: in vivo, Sagittaria pygmaea; conditions: rated 3-4 weeks after treatment
How it was run: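 Herbicidal effect is scored visually on a 0-9 scale against an untreated control, three to four weeks after compounds are pipetted into the flood water (1.5 to 3 cm deep) over seeds planted in silt loam at 0.5 cm depth. Rates: about 0.0313 to 0.500 kg/ha.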

[4] = test system: CASOB (Sicklepod); test: Postemergence herbicidal evaluation; type: in vivo, Cassia obtusifolia; conditions: for CASOB herbicidal rating: postemergence
How it was run: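 Young plants, roughly two weeks from seeding, receive the active ingredient as a sprayed dispersion (acetone/water 50/50, 0.5% TWEEN 20) at 40 psi. Doses span about 0.0156 to 0.500 kg/ha. A visual score from 0 to 9 compares treated with control plants four to five weeks on.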

[5] = test system: TRZAWR (Wheat, Winter, cv Riband); test: Preemergence herbicidal evaluation; type: in vivo, Triticum aestivum; conditions: rated 4-5 weeks after treatment
How it was run: as §1

[6] = test system: ORYSAT (Rice, Tebonnet); test: Rice tolerance to post-transplant applications, flooded paddy conditions (Table III); type: in vivo, Oryza sativa, (L.) Tebonnet
How it was run: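 Injury scored 0-9 by eye against untreated control, judging stand, vigor, malformation, size and chlorosis, three to four weeks after treatment. Compound in 50/50 aqueous/acetone, about 0.0313 to 0.500 kg/ha, was applied to paddy water (1.5 to 3 cm depth) three days after transplanting paired ten-day-old Tebonnet rice seedlings.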

[7] = test system: MOOVA (Monochoria); test: Postemergence weed control under flooded paddy conditions; type: in vivo, Monochoria vaginalis; conditions: postemergence weeds, 3-4 weeks after treatment
How it was run: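 Herbicidal effect is judged by eye on a 0–9 scale versus control, 3–4 weeks after dosing. Dosing is into flood water kept 1.5–3 cm over the soil, at about 0.0313–0.500 kg/ha in aqueous/acetone 50/50 v/v, on 3–5 cm weeds and 1.5–2.5-leaf rice seedlings.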

[8] = test system: ORYSAT (Rice, Tebonnet); test: Rice tolerance to post-transplant applications, flooded paddy conditions (Table IV); type: in vivo, Oryza sativa, (L.) Tebonnet
Source text: Results of herbicide evaluation are expressed on a rating scale (0-9). The scale is based upon a visual observation of plant stand, vigor, malformation, size, chlorosis and overall plant appearance as compared with a control.
Plastic containers containing weeds which are 3 to 5 cm tall and rice seedlings at the 1.5 to 2.5 leaf stage are flooded with water. The water is maintained at 1.5 to 3 cm above the soil surface for the duration of the experiment. Test compounds are applied as aqueous/ acetone mixtures 50/50 v/v directly into the flood water to provide the equivalent of about 0.0313 to 0.500 kg/ha of active ingredient. The treated containers are placed on greenhouse benches and cared for in accordance with conventional greenhouse procedures. Three to four weeks after treatment, the test is terminated and each container is examined and herbicidal effect rated according to the rating system provided in Example 37. The compounds evaluated are reported by compound number given in Example 37.

| SMILES | Herbicidal rating SAGPY ([3]; 0.0313 kg/ha) | Herbicidal rating SAGPY ([3]; 0.0625 kg/ha) | Herbicidal rating SAGPY ([3]; 0.1250 kg/ha) | Herbicidal rating SAGPY ([3]; 0.2500 kg/ha) | CASOB herbicidal rating ([4]; rate 0.0158 kg/ha) | CASOB herbicidal rating ([4]; rate 0.0315 kg/ha) | CASOB herbicidal rating ([4]; rate 0.0630 kg/ha) | Herbicidal rating ORYSAT (rice tolerance) ([6]; in vivo) | Herbicidal rating ORYSAT (rice tolerance) ([8]; in vivo) | Preemergence herbicidal rating GLXMAW ([1]; rate 0.0313 kg/ha) | Preemergence herbicidal rating GLXMAW ([1]; rate 0.0625 kg/ha) | Preemergence herbicidal rating GLXMAW ([1]; rate 0.1250 kg/ha) | Preemergence herbicidal rating ORYSAT ([2]; rate 0.0313 kg/ha) | Preemergence herbicidal rating ORYSAT ([2]; rate 0.0625 kg/ha) | Preemergence herbicidal rating ORYSAT ([2]; rate 0.1250 kg/ha) | Preemergence herbicidal rating ORYSAT ([2]; rate 0.2500 kg/ha) | Preemergence herbicidal rating TRZAWR ([5]; rate 0.0313 kg/ha) | Preemergence herbicidal rating TRZAWR ([5]; rate 0.0625 kg/ha) | Preemergence herbicidal rating TRZAWR ([5]; rate 0.1250 kg/ha) | Preemergence herbicidal rating TRZAWR ([5]; rate 0.2500 kg/ha) | other results |
| --- | --- | --- | --- | --- | --- | --- | --- | --- | --- | --- | --- | --- | --- | --- | --- | --- | --- | --- | --- | --- | --- |
| CCOC(=O)CN1C(=O)C(Cc2ccccc2)SC1=Nc1cc(-n2c(=O)cc(C(F)(F)F)n(C)c2=O)c(F)cc1Cl (stereo not shown) [Compound 24, Ethyl 5-benzyl-2-{{2-chloro-5-[3,6-dihydro-3-methyl-2,6-dioxo-4-(trifluoromethyl)-1(2H)-pyrimidinyl]-4-fluorophenyl}imino}-4-oxo-3-thiazolidineacetate] | 0.0 | 0.0 | 0.0 | 0.0 | 0.0 | 0.0 | 0.0 | 0.0 | 0.0 |  |  |  |  |  |  |  |  |  |  |  | GLXMAW preemergence herbicidal rating ([1]; rate 0.0625 kg/ha): 0.0; GLXMAW preemergence herbicidal rating ([1]; rate 0.1250 kg/ha): 0.0; GLXMAW preemergence herbicidal rating ([1]; rate 0.2500 kg/ha): 0.0; ORYSAT preemergence herbicidal rating ([2]; rate 0.0625 kg/ha): 0.0; ORYSAT preemergence herbicidal rating ([2]; rate 0.1250 kg/ha): 0.0; ORYSAT preemergence herbicidal rating ([2]; rate 0.2500 kg/ha): 0.0; TRZAWR preemergence herbicidal rating ([5]; rate 0.0625 kg/ha): 0.0; TRZAWR preemergence herbicidal rating ([5]; rate 0.1250 kg/ha): 0.0; TRZAWR preemergence herbicidal rating ([5]; rate 0.2500 kg/ha): 0.0; Herbicidal rating MOOVA ([7]; rate 0.0313 kg/ha): 0.0; Herbicidal rating MOOVA ([7]; rate 0.0625 kg/ha): 9.0; Herbicidal rating MOOVA ([7]; rate 0.1250 kg/ha): 9.0; Herbicidal rating MOOVA ([7]; rate 0.2500 kg/ha): 9.0 |
| CCOC(=O)CN1C(=O)C(CC(=O)O)SC1=Nc1cc(-n2c(=O)cc(C(F)(F)F)n(C)c2=O)c(Cl)cc1Cl (stereo not shown) [Compound 33, 2-{{2,4-Dichloro-5-[3,6-dihydro-3-methyl-2,6-dioxo-4-(trifluoromethyl)-1(2H)-pyrimidinyl]phenyl}-imino}-4-oxo-3,5-thiazolidinediacetic acid, 3-ethyl ester] |  |  |  | 0.0 |  |  |  | 0.0 | 0.0 | 0.0 | 0.0 | 0.0 | 0.0 | 0.0 | 0.0 | 0.0 | 0.0 | 0.0 | 0.0 | 0.0 | Preemergence herbicidal rating GLXMAW ([1]; rate 0.0156 kg/ha): 0.0; Preemergence herbicidal rating GLXMAW ([1]; rate 0.2500 kg/ha): 0.0; Preemergence herbicidal rating ORYSAT ([2]; rate 0.0156 kg/ha): 0.0; Postemergence herbicidal rating CASOB ([4]; Rate 0.0158 kg/ha): 0.0; Postemergence herbicidal rating CASOB ([4]; Rate 0.0315 kg/ha): 1.0; Postemergence herbicidal rating CASOB ([4]; Rate 0.0630 kg/ha): 5.0; Preemergence herbicidal rating TRZAWR ([5]; rate 0.0156 kg/ha): 0.0 |
| CCOC(=O)CN1CC(=O)N(CC(=O)OCC)C1=Nc1cc(-n2c(=O)cc(C(F)(F)F)n(C)c2=O)c(F)cc1Cl [Compound 34, 2-{{2-Chloro-5-[3,6-dihydro-3-methyl-2,6-dioxo-4-(trifluoromethyl)-1(2H)-pyrimidinyl]-4-fluoro-phenyl}imino}-4-oxo-1,3-imidazolidinediacetic acid, diethyl ester] | 0.0 | 0.0 | 0.0 | 0.0 |  |  |  |  |  | 0.0 | 0.0 | 0.0 | 0.0 | 0.0 | 2.0 | 5.0 | 0.0 | 0.0 | 1.0 | 5.0 | Preemergence herbicidal rating GLXMAW ([1]; rate 0.2500 kg/ha): 0.0; Postemergence herbicidal rating CASOB ([4]; Rate 0.0158 kg/ha): 0.0; Postemergence herbicidal rating CASOB ([4]; Rate 0.0315 kg/ha): 0.0; Postemergence herbicidal rating CASOB ([4]; Rate 0.0630 kg/ha): 0.0; Herbicidal rating ORYSAT (rice tolerance) ([6]; 0.0313 kg/ha, post-transplant rice, flooded paddy, rated 3-4 weeks after treatment): 3.0; Herbicidal rating ORYSAT (rice tolerance) ([6]; 0.0625 kg/ha, post-transplant rice, flooded paddy, rated 3-4 weeks after treatment): 3.0; Herbicidal rating ORYSAT (rice tolerance) ([6]; 0.1250 kg/ha, post-transplant rice, flooded paddy, rated 3-4 weeks after treatment): 4.0; Herbicidal rating ORYSAT (rice tolerance) ([6]; 0.2500 kg/ha, post-transplant rice, flooded paddy, rated 3-4 weeks after treatment): 6.0; Herbicidal rating ORYSAT (rice tolerance) ([8]; rate 0.0313 kg/ha, flooded paddy, post-transplant rice, 3-4 weeks after treatment): 3.0; Herbicidal rating ORYSAT (rice tolerance) ([8]; rate 0.0625 kg/ha, flooded paddy, post-transplant rice, 3-4 weeks after treatment): 3.0; Herbicidal rating ORYSAT (rice tolerance) ([8]; rate 0.1250 kg/ha, flooded paddy, post-transplant rice, 3-4 weeks after treatment): 4.0; Herbicidal rating ORYSAT (rice tolerance) ([8]; rate 0.2500 kg/ha, flooded paddy, post-transplant rice, 3-4 weeks after treatment): 6.0 |
| CC(C)C[C@@H](C(=O)O)N1C(=O)CSC1=Nc1cc(-n2c(=O)cc(C(F)(F)F)n(C)c2=O)c(F)cc1Cl [Compound 71, α-Isobutyl-2-{{2-chloro-5-[3,6-dihydro-3-methyl-2,6-dioxo-4-(trifluoromethyl)-1(2H)-pyrimidinyl]-4-fluorophenyl}imino}-4-oxo-3-thiazolidineacetic acid, L-] |  |  |  |  | 2.0 | 3.0 | 4.0 |  | 4.0 | 0.0 | 1.0 | 3.0 | 0.0 | 0.0 | 1.0 | 3.0 | 0.0 | 0.0 | 1.0 | 3.0 | Preemergence herbicidal rating GLXMAW ([1]; rate 0.0156 kg/ha): 1.0; Preemergence herbicidal rating ORYSAT ([2]; rate 0.0156 kg/ha): 0.0; SAGPY herbicidal effect rating ([3]; 0.1250 kg/ha): 0.0; SAGPY herbicidal effect rating ([3]; 0.2500 kg/ha): 0.0; Preemergence herbicidal rating TRZAWR ([5]; rate 0.0156 kg/ha): 0.0; ORYSAT herbicidal effect rating (rice tolerance) ([6]; in vivo): 4.0 |
